Results on 3 compounds are retold here after patent publication EP0563386A1, “ANTICANCER COMPOSITION AND COMPOUND” (NIPPON SHINYAKU COMPANY, LIMITED, priority 1990, dated 1992).

As a reminder, the inhibition is the change of the read-out against control, counted positive when it falls.

One assay concerns Meth A fibrosarcoma. Briefly: Meth A fibrosarcoma tumor volume in mice (Test Example 2). It is filed as in vivo, BALB/c mice. The settings on record: Test (2): start tumor volume 160-180 mm³; irsogladine maleate 10 mg/kg or 5-fluorouracil 30 mg/kg orally; Fig. 2. The protocol:
• (1) The homologus tumor Meth A fibrosarcoma subcultured (ascites type) in BALB/c mice, 5 x 10^5 cells, was transplanted subcutaneously at the flank of 6-week-old male BALB/c mice. Mice having a tumor volume of 70-100 mm³ were selected and divided into groups of 9. Oral single daily administration of the test compound was started and the body weight and tumor volume were serially determined. The volume was determined using the same calculation formula as shown in Test Example 1. The compound of the invention irsogladine maleate, 10 mg/kg, suspended in 0.5% methylcellulose maleate and 5-fluorouracil, 15 mg/kg, dissolved in 0.5% methylcellulose solution were respectively administered orally. The control group received 0.5% methylcellulose solution orally. […] The effect of the com pound of this invention as an anticancer agent is, thus, clear. • (2) As in the above test, mice having a tumor volume of 160-180 mm³ were selected and subjected to the same test as above. The compound of this invention irsogladine maleate, 10 mg/kg, 5-flurorouracil, 30 mg/kg, or as a combination therapy, irsogladine maleate, 10 mg/kg, plus 5-fluorouracil, 30 mg/kg, were administered orally. The control group received the same control material as in the above test orally. […] The anticancer adjuvant activity of the compound of this invention to 5-FU is clear.
The open circle stands for control, the open triangle for 5-FU and the closed circle for the compound of the invention. The tumor volume (mm³) is plotted on the vertical axis and the number of days after drug administration on the horizontal axis.
The open circle stands for control, the open triangle for F-5U, the closed circle for the compound of the invention, the open square for the combination therapy. The tumor volume (mm³) is plotted on the vertical axis and the number of days after drug administration on the horizontal axis.

The subject of another assay is MDCK cells. Briefly: Inhibition of uptake of 5-FU in MDCK cells (Test Example 4). The assay is classed as cell-based. The note with it: Canis lupus familiaris, 3H-5FU uptake versus control, harvest time (1, 3 or 5 hours) not given. The protocol: In the assay of inhibitory activity against the 5-FU uptake of MDCK cells, the anticancer adjuvant activity of the test compound can be estimated based on the inhibitory effect on the uptake of a known anticancer drug.
The inhibitory effect of the compound of this invention on the uptake of 5-FU in MDCK cells was investigated. MDCK cells were seeded on a 24-well culture plate. When the cells became confluent, the test compound (10⁻⁶ - 10⁻⁴ M) and 3H-5FU ([…]) were simultaneously added to the medium and 1, 3 and 5 hours later, cells were harvested to determine the amount of 3H-5FU taken up with a liquid scintillation counter. The percent inhibition to control was calculated.

The subject of assay [1] is Colon 26 tumor cells. Briefly: Colon 26 percent tumor inhibition, alone and combined with 5-FU derivatives (Test Example 3). The assay is classed as in vivo, BALB/c mice. The note with it: Test (2): 21 days. The protocol:
The additive effect of 5-FU derivative and the compound of this invention was tested in terms of percent tumor inhibition. Colon 26 tumor cells were transplanted subcutaneously to groups of 8 BALB/c mice and the treatment was instituted when the tumor volume amounted to about 50-100 mm³. Each of the test com pound was suspended in 0.5% methylcellulose and admin istered orally in a dose of 10 mg/kg once daily for 14 days in (1) and for 21 days in (2) and (3). As 5-FU derivatives Mifurol™, Furtulon™ and Sunfural™ were used, and all the drugs were administered orally in a dose of 30mg/kg, or 90 mg/kg as total dose of three drugs. The combination group received these 5-FU derivatives concurrently with the test drug. The single drug group received each test compound alone orally.

Assay [2] has as its system Colon 26 tumor cells. The assay can be described thus: Colon 26 life-prolonging effect / survival (Test Example 5). The settings on record: Test (2): groups of six; 10 mg/kg orally once daily; eighty percent of control group died on day 63; Fig. 4. The assay is classed as in vivo, BALB/c mice. The procedure:
Furthermore, in the assay of growth inhibitory activity against Colon 26, the life-prolonging effect can be evaluated from the mortality of animals during a period of 4 to 6 weeks after administration.
• (1) Colon 26 tumor cells were transplanted subcutane ously in groups of six BALB/c mice and the treatment was instituted when the tumor volume amounted to about 100 - 200 mm³. The test drug suspended in 0.5% methyl cellulose was administered orally in a dose of 10 mg/kg once daily during the test period. All animals in the control group (no test drug was contained at all) died on day 34 and all animals given 5-FU derivative died on day 40, whereas none of the animals given the compound of this invention (compound No. 169) died even after day 40. The life-prolonging effect of the compound of this invention is clear. • (2) As in the above (1), Colon 26 tumor cells were transplanted subcutaneously in groups of six BALB/c mice and treatment was instituted when the tumor volume amounted to about 100-200 mm³. The test drug suspended in 0.5% methylcellulose was administered orally in a dose of 10 mg/kg once daily during the test period.
The open circle stands for control, the open square for the F-5U derivative group and the closed square for the group given the compound of this invention. The survival rate (%) is plotted on the vertical axis and the number of days after drug administration on the horizontal axis.
The open circle stands for the control group, the open square for Compound No. 175 group, the closed circle for Compound No. 210 group, the open triangle for Compound No. 213 group and the closed square for Compound 219 group. The survival rate (%) is plotted on the vertical axis and the number of days after drug administration on the horizontal axis.

The test system of assay [3] is WiDr (human colon cancer). The assay can be described thus: Tumor growth inhibition, WiDr implant in nude mice (Test Example 1). It is filed as in vivo, BALB/c nude mice. The settings on record: implant volume on day 18 after transplantation divided by volume at transplantation; irsogladine maleate 10 mg/kg orally once daily from day 14; cyclophosphamide 150 mg/kg intraperitoneally once on day 14; groups of 10. The protocol: WiDr (human colon cancer) cells subcultured in BALB/c nude mice were dissected to prepare cubes, about 2 mm³ each. These cubes were transplanted subaxillarily into separate BALB/c nude mice using a transplantation needle. The animals were divided into groups of 10 individuals on day 10 after transplantation and the body weight and the diameter of the implant were serially determined. As the compound of this invention, irsogladine maleate, 10 mg/kg, was suspended in 0.5% methylcellulose solution and administered orally once daily beginning day 14 after transplantation. Cyclophosphamide, 150 mg/kg, was dissolved in PBS and administered intraperitoneally once on day 14 after transplantation. The control group received 0.5% methylcellulose solution orally once daily beginning day 14 after transplantation.
The volume of the implant on day 18 after transplantation was divided by the volume at trans plantation. […]
The effect of the compound of this invention as an anticancer agent is clear.

Take `O=c1[nH]cc(F)c(=O)[nH]1` [5-FU, 5-fluorouracil, reference compound]: in the assay with Meth A fibrosarcoma, the “tumor-inhibitory effect, single drug” value was “tumor-inhibitory effect”.
On to `Nc1nc(N)nc(-c2ccc(Br)c(Cl)c2)n1` [Compound No. 219, 2,4-Diamino-6-(4-bromo-3-chlorophenyl)-1,3,5-triazine], for which the inhibition at 100 µM in the assay with MDCK cells (10⁻⁴ M) worked out at 60%. The compound also gave an inhibition at 10 µM with MDCK cells (10⁻⁵ M) of 69%. The compound further returned an inhibition at 1 µM in the assay on MDCK cells (10⁻⁶ M) of 86%. In addition, in the assay on Colon 26 tumor cells [1] (test compound 10 mg/kg orally once daily concurrently with 5-FU derivatives (90 mg/kg total)), the “% Inhibition, Combination” value turned out to be 75.5%. Moreover, the “% Inhibition, Single drug” value with Colon 26 tumor cells [1] (test compound 10 mg/kg orally once daily, 5-FU derivatives 30 mg/kg each (90 mg/kg total) orally) came out at 10.0%. In addition, the life-prolonging effect entry with Colon 26 tumor cells [2] was “definite life-prolonging effect”.
For `O=P1(N(CCCl)CCCl)NCCCO1` (centres unmarked) [Cyclophosphamide, reference compound], the Tumor volume ratio in assay [3] is on record as 1.52 ± 0.06.
